In ChEMBL document CHEMBL3045362, “Iodine catalyzed one-pot synthesis of chloro-substituted linear and angular indoloquinolines and in vitro antiproliferative activity study of different indoloquinolines” (Med Chem Res, 2013):
Values after ≈ are worked out from the molar mass of the structure shown.

What was measured:
HepG2 = test: Cytotoxicity against Homo sapiens (human) HepG2 cells assessed as survival after 48 hr by MTT assay; assay type: functional, cell-based; settings: HepG2, 48 h
MCF7 = test: Cytotoxicity against Homo sapiens (human) MCF-7 cells assessed as survival after 48 hr by MTT assay; assay type: functional, cell-based; settings: MCF7, 48 h

Cc1cccc2cc3c(nc12)[nH]c1ccccc13
IC50 (HepG2): 5.4 µg/mL (≈ 23.2 µM)
IC50 (MCF7): 5.5 µg/mL (≈ 23.7 µM)

c1ccc2[nH]c3nc4ccccc4c-3cc2c1
IC50 (HepG2): > 1000 µg/mL
IC50 (MCF7): > 1000 µg/mL

c1ccc2c(c1)ccc1cc3c(nc12)[nH]c1ccccc13
IC50 (HepG2): 98.1 µg/mL (≈ 366 µM)
IC50 (MCF7): 71.4 µg/mL (≈ 266 µM)

Brc1ccc2cc3c(nc2c1)[nH]c1ccccc13
IC50 (HepG2): 34 µg/mL (≈ 114 µM)
IC50 (MCF7): 42.8 µg/mL (≈ 144 µM)
